Data on twelve compounds can be found in patent US20170081357A1, “[…] ACTIVE 17-NITROGEN SUBSTITUTED ESTRATREINTHIAZOLE DERIVATIVES AS INHIBITORS OF 17.BETA-HYDROXYSTEROID DEHYDROGENASE” (FORENDO PHARMA LTD, priority 2013, published 2017).

For data set [1], the target named is T1, recombinant human 17β-HSD1 (Homo sapiens, UniProt P14061).
T1 construct: made in house; host or cells: Sd9 (Sf9) insect cells, baculovirus (Bac to Bac Expression System); microsomal fraction
T1 sequence (P14061 1-328): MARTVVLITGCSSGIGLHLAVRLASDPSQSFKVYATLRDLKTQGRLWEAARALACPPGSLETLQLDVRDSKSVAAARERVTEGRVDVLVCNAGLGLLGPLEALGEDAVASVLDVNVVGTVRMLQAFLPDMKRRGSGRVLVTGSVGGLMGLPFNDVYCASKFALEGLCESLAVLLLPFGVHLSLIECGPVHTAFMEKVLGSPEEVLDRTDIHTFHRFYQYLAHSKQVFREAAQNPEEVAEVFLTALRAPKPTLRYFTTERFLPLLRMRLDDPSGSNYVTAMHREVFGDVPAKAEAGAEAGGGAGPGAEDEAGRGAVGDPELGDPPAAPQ
The data set can be described thus: Inhibition of recombinant human 17β-HSD1 (conversion of 3H-estrone to estradiol, HPLC). It counts as biochemical. Conditions: inhibitor 1 μM; 30 nM estrone, 1 mM NADPH, 30 min at RT; read-out: 17β-HDS1 Inhibition % at 1 μM. The method, then: 17β-HSD1 production and isolation: Recombinant baculovirus was generated by the “Bac to Bac Expression System” (Invitrogen). Recombinant bacmid was transfected to Sd9 insect cells using “Cellfectin Reagent” (Invitrogen). 60 h later cells were harvested; the microsomal fraction was isolated as described by Puranen, T. J., Poutanen, M. H., Peltoketo, H. E., Vihko, P. T. and Vihko, R. K. (1994) Site-directed mutagenesis of the putative active site of human 17 β-hydroxysteroid dehydrogenase type 1. Biochem. J. 304: 289-293. Aliquots were stored frozen until determination of enzymatic activity.
Assay—Inhibition of recombinant human 17β-HSD1: Recombinant protein (1 μg/ml) was incubated in 20 mM KH2PO4 pH 7.4 with 30 nM estrone (including 800 000 cpm/ml of ^3H-estrone) and 1 mM NADPH for 30 min at RT, in the presence of the potential inhibitor at concentrations 1 μM or 0.1 μM. Inhibitor stock solutions were prepared in DMSO. Final concentration of DMSO was adjusted to 1% in all samples. The enzyme reaction was stopped by addition of 10% trichloroacetic acid (final concentration). Samples were centrifuged in a microtiter plate at 4000 rpm for 10 min. Supernatants were applied to reverse phase HPLC on a Waters Symmetry C18 column, equipped with a Waters Sentry Guard column. Isocratic HPLC runs were performed at RT at a flow rate of 1 ml/min in acetonitrile:water 48:52 as running solvent. Radioactivity was monitored in the eluate by a Packard Flow Scintillation Analyzer. Total radioactivity for estrone and estradiol were determined in each sample and percent conversion of estrone to estradiol was calculated according to the following formula:
(§1) Percent inhibition was calculated flowingly: % inhibition=100−% conversion

Data set [2] deals with T2, recombinant human 17β-HSD2 (Homo sapiens, UniProt P37059).
T2 construct: made in house; host or cells: Sd9 (Sf9) insect cells, baculovirus (Bac to Bac Expression System); fractionated cell extract
T2 sequence (P37059 1-387): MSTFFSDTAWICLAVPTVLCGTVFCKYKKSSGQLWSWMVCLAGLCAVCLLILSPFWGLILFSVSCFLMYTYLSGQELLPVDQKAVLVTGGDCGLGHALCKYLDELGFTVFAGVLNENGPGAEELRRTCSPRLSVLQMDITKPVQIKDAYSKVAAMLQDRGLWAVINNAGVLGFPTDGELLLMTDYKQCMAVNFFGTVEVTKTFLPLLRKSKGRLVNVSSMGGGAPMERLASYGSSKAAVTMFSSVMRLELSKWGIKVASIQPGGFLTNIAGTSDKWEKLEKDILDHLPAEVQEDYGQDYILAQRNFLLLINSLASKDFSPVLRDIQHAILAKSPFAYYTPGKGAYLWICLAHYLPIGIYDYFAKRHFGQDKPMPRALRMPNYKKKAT
Nature of the data set: Inhibition of recombinant human 17β-HSD2 (conversion of 3H-estradiol to estrone, HPLC). It counts as biochemical. Conditions: inhibitor 1 μM; 50 nM estradiol, 1 mM NADH, 30 min at RT. The method, then:
17β-HSD2 production and isolation: Similarly to 17β-HSD1 the Recombinant baculovirus was generated by the “Bac to Bac Expression System” (Invitrogen). Recombinant bacmid was transfected to Sd9 insect cells using “Cellfectin Reagent” (Invitrogen). 60 h later cells were harvested and supernatant were fractionated by the following protocol: • cells were dissolved into 40 ml of A-buffer (40 mM TRIS, pH8.0, 20% glycerol, 20 μM NAD, 0.4 mM PMSF, 150 mM NaCl, 0.5% dodecyl-β-maltoside+protease inhibitor cocktail) • cells were sonicated • lysate was incubated on ice for 15 min • lysate was centrifuged 5000 rpm 15 min, +4° C. • centrifugation of the supernatant 180 000 g 30 min, +4° C. • pellet was dissolved into 8 ml of A-buffer • not resuspended material was removed by centrifugation 5000 rpm 15 min, +4° C. • the clear supernatant was divided into 100 μl aliquots and were stored frozen until determination of enzymatic activity.
The amount of 17β-HSD2 was analysed by immunoblotting and total protein concentration of each extract batch was determined.
Assay—Inhibition of recombinant human 17β-HSD2: Recombinant protein (4 μg/ml) was incubated in 20 mM KH2PO4 pH 8.5 with 50 nM estradiol (including 800 000 cpm/ml of ^3H-estradiol) and 1 mM NADH for 30 min at RT, in the presence of the potential inhibitor at concentrations 1 μM or 0.1 μM. Inhibitor stock solutions were prepared in DMSO. Final concentration of DMSO was adjusted to 1% in all samples. The enzyme reaction was stopped by addition of 10% trichloroacetic acid (final concentration). Samples were centrifuged in a microtiter plate at 4000 rpm for 10 min. Supernatants were applied to reverse phase HPLC on a Waters Symmetry C18 column, equipped with a Waters Sentry Guard column. Isocratic HPLC runs were performed at RT at a flow rate of 1 ml/min in acetonitrile:water 48:52 as running solvent. Radioactivity was monitored in the eluate by a Packard Flow Scintillation Analyzer. Total radioactivity for estrone and estradiol were determined in each sample and percent conversion of estradiol to estrone was calculated according to the following formula:
as §1

A short description of data set [3]: Metabolic stability assay, human liver microsome and homogenate incubations. The class given is in vitro ADME. Conditions: human liver homogenate or microsomes, LC/PDA/TOF-MS. The method, then: The in vitro metabolic stability of the compounds of the invention was determined for exemplified compounds using human liver microsome and homogenate incubations. The incubation time points used with or without appropriate cofactors were 0 min and 60 min. Samples were collected at both time points and substrates were detected using LC/PDA/TOF-MS. In vitro metabolic stability (% remaining after 60 min in human liver homogenate or microsomes) of the compounds were calculated and the results are summarized in Table 3.

Turning to `COc1ccc2c(c1)CCC1C2CC[C@]2(C)c3n[nH]cc3[C@@H](CCC(=O)Nc3ncc(C)s3)C12` (stereo partly drawn) [Compound 50, 3-((6aS,10S)-2-Methoxy-6a-methyl-4b,5,6,6a,8,10,10a,10b,11,12-decehydro-7,8-diaza-pentaleno[2,1-1]phenanthren-10-yl}-N-(5-methylthiazol-2-yl)propanamide], the inhibition at 1 µM in data set [1] is 78%; in data set [2], 0%. The “In vitro metabolic stability, % remaining after 60 min” value in data set [3] is reported as 88%.
Consider `Cc1cnc(NC(=O)CC[C@@H]2c3c[nH]nc3[C@@]3(C)CCC4c5ccc(O)cc5CCC4C23)s1` (stereo partly drawn) [Compound 51, 3-((6aS,10S)-2-Hydroxy-6a-methyl-4b,5,6,6a,8,10,10a,10b,11,12-decehydro-7,8-diaza-pentaleno[2,1-1]phenanthren-10-yl}-N-(5-methylthiazol-2-yl)propanamide], for which the inhibition at 1 µM in data set [1] amounted to 82%; in data set [2] it was 15%. Besides, in data set [3], the “In vitro metabolic stability, % remaining after 60 min” value turned out to be 46%.
As for `Cc1cnc(NC(=O)CC[C@@H]2c3c[nH]nc3[C@@]3(C)CCC4c5cc(C(C)(C)C)c(O)cc5CCC4C23)s1` (stereo partly drawn) [Compound 53, 3-((6aS,10S)-3-tert-Butyl-2-hydroxy-6a-methyl-4b,5,6,6a,8,10,10a,10b,11,12-decehydro-7,8-diaza-pentaleno[2,1-1]phenanthren-10-yl}-N-(5-methylthiazol-2-yl)propanamide], the inhibition at 1 µM turned out to be 76% in data set [1] and 13% in data set [2]. In data set [3], the “In vitro metabolic stability, % remaining after 60 min” value is reported as 100%.
As to `Cc1cnc(NC(=O)CC[C@@H]2c3c[nH]nc3[C@@]3(C)CCC4c5cc([N+](=O)[O-])c(O)cc5CCC4C23)s1` (stereo partly drawn) [Compound 55, 3-((6aS,10S)-2-Hydroxy-6a-methyl-2-nitro-4b,5,6,6a,8,10,10a,10b,11,12-decehydro-7,8-diaza-pentaleno[2,1-1]phenanthren-10-yl}-N-(5-methylthiazol-2-yl)propanamide], the inhibition at 1 µM in data set [1] worked out at 69%; in data set [2], 7%. Also, the “In vitro metabolic stability, % remaining after 60 min” value in data set [3] is recorded as 86%.
In the case of `Cc1cnc(NC(=O)CC[C@@H]2C/C(=N\O)[C@@]3(C)CCC4c5ccccc5CCC4C23)s1` (stereo partly drawn) [Compound 59, 3-{(13S,15R)-17-[(E)-hydroxyimino]-13-methyl-7,8,9,11,12,13,14,15,16,17-decahydro-6H-cyclopenta[a]phenanthren-15-yl}-N-(5-methylthiazol-2-yl)propanamide], the values for the inhibition at 1 µM in data set [1] and in data set [2] were 93% and 2%, respectively. Moreover, the “In vitro metabolic stability, % remaining after 60 min” value in data set [3] worked out at 100%.
On to `Cc1cnc(NC(=O)CC[C@@H]2C/C(=N\O)[C@@]3(C)CCC4c5cc([N+](=O)[O-])c(O)cc5CCC4C23)s1` (stereo partly drawn) [Compound 60, 3-{(13S,15R)-3-Hydroxy-2-nitro-17-[(E)-hydroxyimino]-13-methyl-7,8,9,11,12,13,14,15,16,17-decahydro-6H-cyclopenta[a]phenanthren-15-yl}-N-(5-methylthiazol-2-yl)propanamide], for which, in data set [3], the “In vitro metabolic stability, % remaining after 60 min” value was found to be 84%.
In the case of `Cc1cnc(NC(=O)CC[C@@H]2C/C(=N\O)[C@@]3(C)CCC4c5ccc(O)c(Br)c5CCC4C23)s1` (stereo partly drawn) [Compound 63, 3-{(13S,15R)-4-Bromo-3-hydroxy-17-[(E)-hydroxyimino]-13-methyl-7,8,9,11,12,13,14,15,16,17-decahydro-6H-cyclopenta[a]phenanthren-15-yl}-N-(5-methylthiazol-2-yl)propanamide], the “In vitro metabolic stability, % remaining after 60 min” value in data set [3] worked out at 64%.
The same measure, in the same setting: as for `Cc1cnc(NC(=O)CC[C@@H]2C/C(=N\O)[C@@]3(C)CCC4c5cc(Br)c(O)c(Br)c5CCC4C23)s1` (stereo partly drawn) [Compound 64, 3-{(13S,15R)-2,4-Dibromo-3-hydroxy-17-[(E)-hydroxyimino]-13-methyl-7,8,9,11,12,13,14,15,16,17-decahydro-6H-cyclopenta[a]phenanthren-15-yl}-N-(5-methylthiazol-2-yl)propanamide], the figure is 95%.
On the same count and under the same terms, as for `CO/N=C1\C[C@@H](CCC(=O)Nc2ncc(C)s2)C2C3CCc4cc(O)ccc4C3CC[C@]12C` (stereo partly drawn) [Compound 73, 3-{(13S,15R)-3-Hydroxy-17-[(E)-methoxyimino]-13-methyl-7,8,9,11,12,13,14,15,16,17-decahydro-6H-cyclopenta[a]phenanthren-15-yl}-N-(5-methylthiazol-2-yl)propanamide], the figure is 73%; as for `CO/N=C1\C[C@@H](CCC(=O)Nc2ncc(C)s2)C2C3CCc4cc(O)c(C(C)(C)C)cc4C3CC[C@]12C` (stereo partly drawn) [Compound 76, 3-{(13S,15R)-2-tert-Butyl-3-hydroxy-17-[(E)-methoxyimino]-13-methyl-7,8,9,11,12,13,14,15,16,17-decahydro-6H-cyclopenta[a]phenanthren-15-yl}-N-(5-methylthiazol-2-yl)propanamide], 100%; as for `CO/N=C1\C[C@@H](CCC(=O)Nc2ncc(C)s2)C2C3CCc4cc(O)c(Br)cc4C3CC[C@]12C` (stereo partly drawn) [Compound 85, 3-{(13S,15R)-2-Bromo-3-hydroxy-17-[(E)-methoxyimino]-13-methyl-7,8,9,11,12,13,14,15,16,17-decahydro-6H-cyclopenta[a]phenanthren-15-yl}-N-(5-methylthiazol-2-yl)-propanamide], 34%.
For `CO/N=C1\C[C@@H](CCC(=O)Nc2ncc(C)s2)C2C3CCc4cc(O)c(Cl)cc4C3CC[C@]12C` (stereo partly drawn) [Compound 88, 3-{(13S,15R)-2-Chloro-3-hydroxy-17-[(E)-methoxyimino]-13-methyl-7,8,9,11,12,13,14,15,16,17-decahydro-6H-cyclopenta[a]phenanthren-15-yl}-N-(5-methylthiazol-2-yl)propanamide], the “In vitro metabolic stability, % remaining after 60 min” value in data set [3] is recorded as 94%.
